Test results reported in patent US9434692B2, “Pyrazole derivatives as modulators of the 5-HT2A serotonin receptor useful for the treatment of disorders related thereto” (Arena Pharmaceuticals, Inc., priority 2006, dated 2016).

Key:
normal volunteers = experiment: Afternoon nap model of insomnia in normal volunteers; type: in vivo, human
From the text: APD125, a potent and selective 5-HT2A serotonin receptor inverse agonist is a member of the genus disclosed in the European Patent EP1558582. […] Sleep onset latency was not decreased by APD125. In the afternoon nap model, APD125 decreased microarousals, the number of sleep stage shifts, and number of awakenings after sleep onset.

healthy adults = experiment: Phase 1 trials, waking EEG; type: in vivo, human
diabetic rats = details: cited from earlier work; for reduction in saphenous sensory conduction velocity: 14.9% reduction in diabetic rats; for correction of sciatic motor conduction deficit: 19.8% deficit in diabetic rats, range over all three drugs; for reduction in sciatic endoneurial blood flow: 44.7% reduction in diabetic rats
[1] = tested on: DOI-induced hypolocomotion; experiment: Attenuation of DOI-induced hypolocomotion in rats; type: in vivo, Sprague-Dawley rats; details: compound 1-10 mg/kg p.o., DOI 1 mg/kg s.c.
Method: In this example, compounds of the invention were tested for inverse agonist activity by determining whether these compounds could attenuate DOI-induced hypolocomotion in rats in a novel environment. DOI is a potent 5-HT2A/2C receptor agonist that crosses the blood-brain barrier. The standard protocol used is described briefly below.
Male Sprague-Dawley rats weighing between 200-350 g were used for all tests. Rats were housed three to four per cage.
(R)-DOI HCl (C11H16INO2.HCl) was obtained from Sigma-Aldrich, and was dissolved in 0.9% saline. Compounds of the invention were synthesized at Arena Pharmaceuticals Inc., San Diego, Calif., and were dissolved in 100% PEG400. DOI was injected s.c. in a volume of 1 mL/kg, while compounds of the invention were administered p.o. in a volume of 1 mL/kg.
The “Motor Monitor” (Hamilton-Kinder, Poway, Calif.) was used for all activity measurement. This apparatus recorded rears using infrared photobeams. […]
In determining the effects of compounds of the invention on DOI-induced hypoactivity, animals were first injected with vehicle or the compound of the invention (1-10 mg/kg) in their home cages. […] Ten minutes after DOI administration, animals were placed into the activity apparatus and rearing activity was measured for 10 min.
Results (total rears over 10 minutes) were analyzed by t-test. […]

[2] = target: human 5-HT2A serotonin receptor (Homo sapiens (Human), UniProt P28223); experiment: [125I]DOI radioligand binding assay; details: 0.5 nM [125I]DOI, COS7 membranes, recombinant human 5-HT2A
Method: Compounds of the invention were tested for their ability to bind to a 5-HT2A serotonin receptor clone membrane preparation using a radioligand binding assay. Briefly, COS cells were transiently transfected with a pCMV expression vector containing a human 5-HT2A receptor (for the sequence of the receptor see U.S. Pat. No. 6,541,209, SEQ ID NO:24).
COS7 cells transfected with recombinant human 5-HT2A serotonin receptors were cultured for 48 h post transfection, collected, washed with ice-cold phosphate buffered saline, pH 7.4 (PBS), and then centrifuged at 48,000 g for 20 min at 4° C. The cell pellet was then resuspended in wash buffer containing 20 mM HEPES pH 7.4 and 0.1 mM EDTA, homogenized on ice using a Brinkman polytron, and recentrifuged at 48,000 g for 20 min at 4° C. The resultant pellet was then resuspended in 20 mM HEPES, pH 7.4, homogenized on ice, and centrifuged (48,000 g for 20 min at 4° C.). Crude membrane pellets were stored at −80° C. until used for radioligand binding assays.
Radioligand binding assays for human 5-HT2A serotonin receptor was conducted using the 5-HT2 agonist [^125I]DOI as radioligand. To define nonspecific binding, 10 μM DOI was used for all assays. For competitive binding studies, 0.5 nM [^125I]DOI was used and compounds were assayed over a range of 0.01 nM to 10 μM. Assays were conducted in a total volume of 200 μl in 96-well Perkin Elmer GF/C filter plates in assay buffer (50 mM Tris-HCl, pH 7.4, 0.5 mM EDTA, 5 mM MgCl2, and 10 μM pargyline). Assay incubations were performed for 60 min at room temperature and were terminated by rapid filtration under vacuum pressure of the reaction mixture over Whatman GF/C glass fiber filters presoaked in 0.5% PEI using a Brandell cell harvester. Filters were then washed several times with ice-cold wash buffer (50 mM Tris-HCl, pH 7.4). Plates were then dried at room temperature and counted in a Wallac MicroBeta scintillation counter.

[3] = tested on: DOCA-salt induced hypertension; details: rats; cited from earlier work
glaucoma patients = details: cited from earlier work
JC virus = details: cited from earlier work
heatstroke = details: in vivo; cited from earlier work
[4] = tested on: spontaneously hypertensive rats; details: cited from earlier work
pain in rats = details: cited from earlier work
[5] = tested on: lower back pain, leg pain and numbness; details: humans, lumbar disc herniation; cited from earlier work
diabetic nephropathy = details: 24 months of treatment; cited from earlier work

COc1ccc(NC(=O)Nc2ccc(F)cc2F)cc1-c1c(Br)cnn1C [APD125]
REM sleep (normal volunteers; human, in vivo): at the expense of REM sleep
microarousals (normal volunteers; human, in vivo): decreased
number of awakenings after sleep onset (normal volunteers; human, in vivo): decreased
number of sleep stage shifts (normal volunteers; human, in vivo): decreased
sleep onset latency (normal volunteers; human, in vivo): not decreased
slow wave sleep and associated parameters (normal volunteers; primarily during the early part of sleep): increased slow wave sleep and associated parameters in a dose-dependent manner
dose of maximal effects on waking EEG (healthy adults): 40 to 80 mg
effects on waking EEG (healthy adults): vigilance-lowering effects
time of peak effects after dosing (healthy adults; waking EEG): 24 h

O=CN1CCC(C(=O)NCCN2CCC(=C3c4ccccc4C=Cc4ccccc43)CC2)CC1 [AT-1015]
reduction in saphenous sensory conduction velocity (diabetic rats): completely reversed
correction of sciatic motor conduction deficit (diabetic rats): 82.6-99.7%
reduction in sciatic endoneurial blood flow (diabetic rats): completely reversed

CCn1cc(Cl)c(C(=O)N2CCN(CC(=O)c3ccc(F)cc3)CC2)n1 [Compound 7, 2-[4-(4-Chloro-1-ethyl-1H-pyrazole-3-carbonyl)-piperazin-1-yl]-1-(4-fluoro-phenyl)-ethanone]
attenuation of DOI-induced hypolocomotion (total rears over 10 minutes) [1]: attenuated DOI-induced hypolocomotion

Cn1cc(Cl)c(C(=O)N2CCN(CCc3ccccc3F)CC2)n1 [Compound 24, (4-Chloro-1-methyl-1H-pyrazol-3-yl)-{4-[2-(2-fluoro-phenyl)-ethyl]-piperazin-1-yl}-methanone]
IC50 [2]: 36 nM

Cn1nc(C(=O)N2CCN(CC(=O)c3ccc(F)cc3)CC2)cc1C(F)(F)F [Compound 35, 1-(4-Fluoro-phenyl)-2-[4-(1-methyl-5-trifluoromethyl-1H-pyrazole-3-carbonyl)-piperazin-1-yl]-ethanone]
attenuation of DOI-induced hypolocomotion (total rears over 10 minutes) [1]: attenuated DOI-induced hypolocomotion

Cc1[nH]nc(C(=O)N2CCN(CC(=O)c3ccc(F)cc3)CC2)c1F [Compound 42, 2-[4-(4-Fluoro-5-methyl-1H-pyrazole-3-carbonyl)-piperazin-1-yl]-1-(4-fluoro-phenyl)-ethanone]
IC50 [2]: 11 nM

Cc1[nH]nc(C(=O)N2CCN(CC(=O)c3ccc(F)cc3)CC2)c1Br [Compound 52, 2-[4-(4-Bromo-5-methyl-1H-pyrazole-3-carbonyl)-piperazin-1-yl]-1-(4-fluoro-phenyl)-ethanone]
IC50 [2]: 4.6 nM

Cn1nc(C(=O)N2CCN(CC(=O)c3ccc(F)cc3)CC2)cc1-c1ccco1 [Compound 66, 1-(4-Fluoro-phenyl)-2-[4-(5-furan-2-yl-1-methyl-1H-pyrazole-3-carbonyl)-piperazin-1-yl]-ethanone]
IC50 [2]: 4.8 nM

CN1CCN2c3ccccc3Cc3ccccc3C2C1 (centres unmarked) [Mainserin]
DOCA-salt induced hypertension [3]: prevent DOCA-salt induced hypertension

O=C(c1ccc(F)cc1)C1CCN(CCn2c(=O)[nH]c3ccccc3c2=O)CC1 [ketanserin]
intra ocular pressure (IOP) (glaucoma patients): significantly lower IOP
JC virus infection of human glial cells (JC virus): inhibited JC virus infection of human glial cells
protection during heatstroke (heatstroke): protect against circulatory shocks, intracranial hypertension, and cerebral ischemia during heatstroke
blood pressure [4]: stabilize blood pressure

Cc1nc2sccn2c(=O)c1CCN1CCC(=C(c2ccc(F)cc2)c2ccc(F)cc2)CC1 [ritanserin]
JC virus infection of human glial cells (JC virus): inhibited JC virus infection of human glial cells
reduction in saphenous sensory conduction velocity (diabetic rats): completely reversed
correction of sciatic motor conduction deficit (diabetic rats): 82.6-99.7%
reduction in sciatic endoneurial blood flow (diabetic rats): completely reversed

COc1cccc(CCc2ccccc2OCC(CN(C)C)OC(=O)CCC(=O)O)c1 (centres unmarked) [sarpogrelate]
intra ocular pressure (IOP) (glaucoma patients): significantly lower IOP
analgesic effect on thermal induced pain (pain in rats; intraperitoneal administration): significant analgesic effect
analgesic effect on inflammatory pain (pain in rats; intrathecal or intraperitoneal administration): significant analgesic effect
treatment of lower back pain, leg pain and numbness associated with sciatica [5]: effective treatment
reduction in saphenous sensory conduction velocity (diabetic rats): completely reversed
correction of sciatic motor conduction deficit (diabetic rats): 82.6-99.7%
reduction in sciatic endoneurial blood flow (diabetic rats): completely reversed
urinary albumin excretion level (diabetic nephropathy): significantly reduced
